Results taken from patent publication US5484717A, “Antibiotic 31F508α1, 31F508α2, 31F508β1, 31F508β2” (American Cyanamid Company, priority 1995, dated 1996).
Converted amounts (≈) assume the structure as drawn. Where two headings read alike, the source gives them in different places.

Legend:
[1] = tested on: CNS (ID-3120); assay: In vitro antibacterial activity, agar dilution MIC; format: cell-based; settings: 18 h
Procedure: (§1) The in vitro antibacterial activity of 31F508α1 and α2 is determined against a spectrum of gram-positive and gram-negative bacteria by a standard agar dilution method. Mueller-Hinton agar with and without 5% sheep blood and two-fold decreasing concentrations of either 31F508α1 or α2 are poured into petri dishes. The agar surfaces are inoculated with 1 to 5×10^4 colony forming units of bacteria by means of the Steers replicating device. The lowest concentration of antibiotic that inhibits growth of a bacterial strain after 18 hours incubation is recorded as the minimal inhibitory concentration for that strain. The results are given in Table V with sheeps blood added to the agar.

[2] = tested on: Staphylococcus aureus (ID-2727); assay: In vitro antibacterial activity, agar dilution MIC; format: cell-based; settings: 18 h, read-out: Minimum Inhibitory Concentration
Procedure: as §1

[3] = tested on: S. lutea (ATCC 9341); assay: In vitro antibacterial activity, agar dilution MIC; format: cell-based; settings: 18 hours
Procedure: as §1

[4] = tested on: E. coli (J2175); assay: In vitro antibacterial activity, agar dilution MIC; format: cell-based; settings: Escherichia coli, 18 h, read-out: Minimum Inhibitory Concentration
Procedure: as §1

[5] = tested on: Staphylococcus haemolyticus (ID-4061); assay: In vitro antibacterial activity, agar dilution MIC; format: cell-based; settings: 18 h, read-out: Minimum Inhibitory Concentration
Procedure: as §1

[6] = tested on: S. agalactiae (ID-4079); assay: In vitro antibacterial activity, agar dilution MIC; format: cell-based; settings: Streptococcus agalactiae
Procedure: as §1

[7] = tested on: Staphylococcus aureus (ID-2371); assay: In vitro antibacterial activity, agar dilution MIC; format: cell-based; settings: 18 h, read-out: Minimum Inhibitory Concentration
Procedure: as §1

[8] = tested on: Staphylococcus aureus (ID-3105); assay: In vitro antibacterial activity, agar dilution MIC; format: cell-based; settings: 18 h, read-out: Minimum Inhibitory Concentration
Procedure: as §1

[9] = tested on: CNS (ID-3276); assay: In vitro antibacterial activity, agar dilution MIC; format: cell-based; settings: 18 h, read-out: Minimum Inhibitory Concentration, CNS (ID-3276), without sheep blood
Procedure: as §1

[10] = tested on: E. faecalis (ATCC 29212); assay: In vitro antibacterial activity, agar dilution MIC; format: cell-based; settings: Enterococcus faecalis, ATCC29212, 18 h, read-out: Minimum Inhibitory Concentration
Procedure: as §1

[11] = tested on: E. faecium (12202); assay: In vitro antibacterial activity, agar dilution MIC; format: cell-based; settings: Enterococcus faecium, 18 h, read-out: Minimum Inhibitory Concentration
Procedure: as §1

[12] = tested on: E. faecium (ID-3301); assay: In vitro antibacterial activity, agar dilution MIC; format: cell-based; settings: Enterococcus faecium, 18 h, read-out: Minimum Inhibitory Concentration
Procedure: as §1

[13] = tested on: Staphylococcus aureus (ATCC 29213); assay: In vitro antibacterial activity, agar dilution MIC; format: cell-based; settings: ATCC29213, 18 h, read-out: Minimum Inhibitory Concentration
Procedure: as §1

[14] = tested on: E. faecalis (ID-4168); assay: In vitro antibacterial activity, agar dilution MIC; format: cell-based; settings: Enterococcus faecalis, 18 h, read-out: Minimum Inhibitory Concentration
Procedure: as §1

[15] = tested on: Staphylococcus aureus (MEMC-89-4); assay: In vitro antibacterial activity, agar dilution MIC; format: cell-based; settings: 18 h, read-out: Minimum Inhibitory Concentration
Procedure: as §1

[16] = tested on: E. coli (J2445); assay: In vitro antibacterial activity, agar dilution MIC; format: cell-based; settings: Escherichia coli, 18 h, read-out: Minimum Inhibitory Concentration
Procedure: as §1

[17] = tested on: M. morganii (VGH 84-11); assay: In vitro antibacterial activity, agar dilution MIC; format: cell-based; settings: Morganella morganii, 18 h, read-out: Minimum Inhibitory Concentration
Procedure: as §1

[18] = tested on: E. faecalis (12201); assay: In vitro antibacterial activity, agar dilution MIC; format: cell-based; settings: Enterococcus faecalis, 18 h, read-out: Minimum Inhibitory Concentration
Procedure: as §1

[19] = tested on: E. faecium (ID-4133); assay: In vitro antibacterial activity, agar dilution MIC; format: cell-based; settings: 18 hours
Procedure: as §1

[20] = tested on: E. coli (ATCC 25922); assay: In vitro antibacterial activity, agar dilution MIC; format: cell-based; settings: 18 hours
Procedure: as §1

[21] = tested on: Streptococcus pneumoniae (ID-4444); assay: In vitro antibacterial activity, agar dilution MIC; format: cell-based; settings: 18 h, read-out: Minimum Inhibitory Concentration
Procedure: as §1

[22] = tested on: B. cereus (Bacto); assay: In vitro antibacterial activity, agar dilution MIC; format: cell-based; settings: Bacillus cereus, 18 h, read-out: Minimum Inhibitory Concentration
Procedure: as §1

[23] = tested on: E. faecalis (ID-2131); assay: In vitro antibacterial activity, agar dilution MIC; format: cell-based; settings: Enterococcus faecalis, 18 h, read-out: Minimum Inhibitory Concentration
Procedure: as §1

[24] = tested on: CNS (ID-3941); assay: In vitro antibacterial activity, agar dilution MIC; format: cell-based; settings: 18 h
Procedure: as §1

[25] = tested on: CNS (4615); assay: In vitro antibacterial activity, agar dilution MIC; format: cell-based; settings: 18 h
Procedure: as §1

[26] = tested on: P. aeruginosa (ATCC 27853); assay: In vitro antibacterial activity, agar dilution MIC; format: cell-based; settings: 18 hours
Procedure: as §1

[27] = tested on: Staphylococcus aureus (ID-4379); assay: In vitro antibacterial activity, agar dilution MIC; format: cell-based; settings: 18 h, read-out: Minimum Inhibitory Concentration
Procedure: as §1

[28] = tested on: S. Pyogenes (ID-3187); assay: In vitro antibacterial activity, agar dilution MIC; format: cell-based; settings: Streptococcus pyogenes, 18 h, read-out: Minimum Inhibitory Concentration
Procedure: as §1

[29] = tested on: E. faecalis (ID-1829); assay: In vitro antibacterial activity, agar dilution MIC; format: cell-based; settings: Enterococcus faecalis, 18 h, read-out: Minimum Inhibitory Concentration
Procedure: as §1

[30] = tested on: E. Avium (ID-3953); assay: In vitro antibacterial activity, agar dilution MIC; format: cell-based; settings: Enterococcus avium, 18 h, read-out: Minimum Inhibitory Concentration
Procedure: as §1

[31] = tested on: Staphylococcus aureus (SMITH); assay: In vitro antibacterial activity, agar dilution MIC; format: cell-based; settings: 18 h, read-out: Minimum Inhibitory Concentration
Procedure: as §1

[32] = Stability (conversion in neutral or basic solution; decomposition on drying); format: physicochemical; settings: listed as α1
Procedure: The crude product is then separated into the α1, α2, β1 and β2 components and further purified by high performance liquid chromatography on a reverse-phase column equilibrated with 0.1% trifluoroacetic acid in water followed by slution with an acetonitrile gradient to 10%. Active fractions are pooled and freeze dried. Freeze dried fractions are dissolved in 0.01M hydrochloric acid, applied to a reverse phase column and eluted with an acetonitrile gradient to 10% resolves the two components α1 and α2. […] Beta is the quinone form of α1 or α2 having lost hydrogens from the oxygens connected to carbon10 and 13.
The freeze dried material is suspended in methanol and the insolubles removed by filtration. The soluble material is concentrated to dryness and the concentrate dissolved in 1% trifluoroacetic acid in water. Insolubles are removed by centrifugation. The soluble material is loaded onto a preparative reverse phase C18 column equilibrated with 0.1% trifluoroacetic acid in water. The column is eluted with an acetonitrile gradient to 10%. Active fractions containing the alpha component are pooled and freeze dried. Active fractions containing the beta component are adjusted to pH 8 with solid ammonium bicarbonate and extracted with methylene chloride. The beta component is stored in methylene chloride as drying leads to rapid decomposition. […]

**Q.** What does the source list for `COc1c(C)c(O)c2c(c1O)C1COC3C4CC5C(N4)C(C2N2CCOC52)N13` (stereo not drawn) [31F508α1]?
**A.** MIC ([1]; read-out: Minimum Inhibitory Concentration, CNS (ID-3120), with 5% sheep blood): 0.03 mg/L (≈ 0.0774 µM); MIC ([1]; read-out: Minimum Inhibitory Concentration, CNS (ID-3120), without sheep blood): 0.015 mg/L (≈ 0.0387 µM); MIC ([2]; with 5% sheep blood): 0.015 mg/L (≈ 0.0387 µM); MIC ([2]; without sheep blood): 0.008 mg/L (≈ 0.0206 µM); MIC ([3]; Micrococcus luteus, ATCC9341, without sheep blood, read-out: Minimum Inhibitory Concentration): 0.002 mg/L (≈ 0.00516 µM); Minimum Inhibitory Concentration ([3]; with 5% sheep blood): 0.002 µg/mL; MIC ([4]; with 5% sheep blood): 2 mg/L (≈ 5.16 µM); MIC ([4]; without sheep blood): 1 mg/L (≈ 2.58 µM); MIC ([5]; with 5% sheep blood): 0.015 mg/L (≈ 0.0387 µM); MIC ([5]; without sheep blood): 0.008 mg/L (≈ 0.0206 µM); MIC ([6]; 18 h, read-out: Minimum Inhibitory Concentration, S. acralactiae (ID-4079), without sheep blood): 0.004 mg/L (≈ 0.0103 µM); MIC ([6]; S. agalactiae (ID-4079), with 5% sheep blood, 18 hours, read-out: Minimum Inhibitory Concentration): 0.015 mg/L (≈ 0.0387 µM); MIC ([7]; with 5% sheep blood): 0.06 mg/L (≈ 0.155 µM); MIC ([7]; without sheep blood): 0.03 mg/L (≈ 0.0774 µM); MIC ([8]; with 5% sheep blood): 0.06 mg/L (≈ 0.155 µM); MIC ([8]; without sheep blood): 0.03 mg/L (≈ 0.0774 µM); MIC [9]: 0.008 mg/L (≈ 0.0206 µM); MIC ([10]; with 5% sheep blood): 0.12 mg/L (≈ 0.31 µM); MIC ([10]; without sheep blood): 0.06 mg/L (≈ 0.155 µM); MIC ([11]; with 5% sheep blood): 0.25 mg/L (≈ 0.645 µM); MIC ([11]; without sheep blood): 0.03 mg/L (≈ 0.0774 µM); MIC ([12]; with 5% sheep blood): 0.12 mg/L (≈ 0.31 µM); MIC ([12]; without sheep blood): 0.06 mg/L (≈ 0.155 µM); MIC ([13]; Staphylococcus aureus (ATCC 29213), with 5% sheep blood): 0.12 mg/L (≈ 0.31 µM); MIC ([13]; Staphylococcus aureus (ATCC 29213-), without sheep blood): 0.06 mg/L (≈ 0.155 µM); MIC ([14]; with 5% sheep blood): 0.12 mg/L (≈ 0.31 µM); MIC ([14]; without sheep blood): 0.06 mg/L (≈ 0.155 µM); MIC ([15]; with 5% sheep blood): 0.06 mg/L (≈ 0.155 µM); MIC ([15]; without sheep blood): 0.03 mg/L (≈ 0.0774 µM); MIC ([16]; with 5% sheep blood): 0.12 mg/L (≈ 0.31 µM); MIC ([16]; without sheep blood): 0.06 mg/L (≈ 0.155 µM); MIC ([17]; with 5% sheep blood): 2 mg/L (≈ 5.16 µM); MIC ([17]; without sheep blood): 1 mg/L (≈ 2.58 µM); MIC ([18]; with 5% sheep blood): 0.06 mg/L (≈ 0.155 µM); MIC ([18]; without sheep blood): 0.03 mg/L (≈ 0.0774 µM); MIC ([19]; Enterococcus faecium, without sheep blood, read-out: Minimum Inhibitory Concentration): 0.002 mg/L (≈ 0.00516 µM); Minimum Inhibitory Concentration ([19]; with 5% sheep blood): 0.002 µg/mL; MIC ([20]; Escherichia coli, ATCC25922, without sheep blood, read-out: Minimum Inhibitory Concentration): 1 mg/L (≈ 2.58 µM); Minimum Inhibitory Concentration ([20]; with 5% sheep blood): 1.000 µg/mL; MIC ([21]; with 5% sheep blood): 0.008 mg/L (≈ 0.0206 µM); MIC ([21]; without sheep blood): 0.002 mg/L (≈ 0.00516 µM); MIC ([22]; with 5% sheep blood): 1 mg/L (≈ 2.58 µM); MIC ([22]; without sheep blood): 0.5 mg/L (≈ 1.29 µM); MIC ([23]; with 5% sheep blood): 0.25 mg/L (≈ 0.645 µM); MIC ([23]; without sheep blood): 0.12 mg/L (≈ 0.31 µM); MIC ([24]; read-out: Minimum Inhibitory Concentration, CNS (ID-3941), with 5% sheep blood): 0.06 mg/L (≈ 0.155 µM); MIC ([24]; read-out: Minimum Inhibitory Concentration, CNS (ID-3941), without sheep blood): 0.03 mg/L (≈ 0.0774 µM); MIC ([25]; read-out: Minimum Inhibitory Concentration, CNS (4615), with 5% sheep blood): 0.03 mg/L (≈ 0.0774 µM); MIC ([25]; read-out: Minimum Inhibitory Concentration, CNS (4615), without sheep blood): 0.015 mg/L (≈ 0.0387 µM); MIC ([26]; Pseudomonas aeruginosa, ATCC27853, without sheep blood, read-out: Minimum Inhibitory Concentration): 2 mg/L (≈ 5.16 µM); Minimum Inhibitory Concentration ([26]; with 5% sheep blood): 2.000 µg/mL; MIC ([27]; with 5% sheep blood): 0.12 mg/L (≈ 0.31 µM); MIC ([27]; without sheep blood): 0.03 mg/L (≈ 0.0774 µM); MIC ([28]; with 5% sheep blood): 0.004 mg/L (≈ 0.0103 µM); MIC ([28]; without sheep blood): 0.002 mg/L (≈ 0.00516 µM); MIC ([29]; with 5% sheep blood): 0.5 mg/L (≈ 1.29 µM); MIC ([29]; without sheep blood): 0.12 mg/L (≈ 0.31 µM); MIC ([30]; with 5% sheep blood): 0.25 mg/L (≈ 0.645 µM); MIC ([30]; without sheep blood): 0.06 mg/L (≈ 0.155 µM); MIC ([31]; with 5% sheep blood): 0.008 mg/L (≈ 0.0206 µM); MIC ([31]; without sheep blood): 0.004 mg/L (≈ 0.0103 µM); Conversion to the beta (quinone) form [32]: converts to the beta form
